Laboratory results reported in patent publication US10653141B2, “Compositions and methods for attracting mosquitoes and repelling sand flies” (priority 2014, dated 2020).

Key:
mosquitoes = assay: Laboratory and mesocosm trials of Vectrax bait blended with insecticide; assay type: in vivo
Source text: Vectrax Bait Stations. To apply Vectrax within bait stations, the formulation—again, previously shaken or stirred—is loaded into a reservoir that provides the target insects with easy access to the attractant material, similar to a hummingbird feeder. […] In order to maintain maximum A&K efficiency, the toxicant component should be blended into the Vectrax attractant formulation as close to the time of application as possible. The attractant or A&K formulation may be loaded into the bait station in amounts ranging from a few grams to several liters, depending on the desired field life. If desired, a sponge or other absorbent material may be applied with the formulation, to facilitate landing by the mosquitoes. As with Vectrax-baited traps, Vectrax bait stations may be deployed singly, as a means to divert or attract and kill mosquitoes in sensitive environments (i.e., rural residences, backyards, recreational activity sites), or as part of a mosquito management strategy, placed at whatever locations and whatever density is thought to be required.

Phlebotomus dubosqui = assay: Dual-choice bioassay, treated vs control chamber; assay type: in vivo; details: 1,200 mg DEET
Source text: Through a series of dual-choice bioassays, a new combination of plant volatile semiochemicals was identified, which acts as a powerful repellent against two vector species of sand flies, Lutzomyia longipalpis and Phlebotomus dubosqui (vectors of leishmaniasis). […] Female sand flies repelled from host environments will be less likely to obtain a blood meal, reducing egg production, while aggregation by males, which typically occurs near hosts, will also be impeded by the presence of a repellent. Both of these interventions will lead to a decrease in reproductive success within the treated area, and over time, a reduction in sand fly population size.
Vectrax can also be deployed as a vehicle for the controlled release of repellent plant volatiles, to manage sand fly populations. […] This plant-based repellent formulation could reduce sand fly populations in a number of ways. Female sand flies repelled from host environments by Vectrax will be less likely to obtain a blood meal, reducing egg production, while lek formation by males, which typically occurs near hosts, will also be impeded by the presence of a repellent. Both of these interventions will lead to a decrease in reproductive success within the treated area, and over time, a reduction in sand fly population size.

Structure (SMILES) | efficacy as insecticide blended into Vectrax attract and kill bait (mosquitoes) | flies selecting the untreated over the treated chamber (repellency) (Phlebotomus dubosqui)
CNC(=O)c1cc(C#N)cc(C)c1NC(=O)c1cc(Br)nn1-c1ncccc1Cl [cyazypyr] | quite effective | 
CCN(CC)C(=O)c1cccc(C)c1 [DEET, N, N-diethyl-meta-toluamide] |  | 79%
